According to ChEMBL document CHEMBL1150842, “Two new fatty diterpenoids from Salvia miltiorrhiza” (J Nat Prod, 2001):

Tests used:
Type in all cases: functional, cell-based
Details in all cases: Oryctolagus cuniculus
[1] = Antiplatelet activity against washed rabbit platelet assessed as inhibition of thrombin-induced platelet aggregation preincubated for 3 mins before thrombin challenge
[2] = Antiplatelet activity against washed rabbit platelet assessed as inhibition of collagen-induced platelet aggregation preincubated for 3 mins before collagen challenge
[3] = Antiplatelet activity against washed rabbit platelet assessed as inhibition of arachidonic acid-induced platelet aggregation preincubated for 3 mins before arachidonic acid challenge

| Structure (SMILES) | IC50 [1] | IC50 [2] | IC50 [3] |
| --- | --- | --- | --- |
| CCCCCCCC/C=C\CCCCCCCC(=O)OCC(C)C1=C(O)C(=O)c2c(ccc3c2CCCC3(C)C)C1=O (configuration not stated) | > 100 µM | 50.4 µM | 5.1 µM |
| CCCCCCCC/C=C\CCCCCCCC(=O)OCC(C)C1=C(O)C(=O)c2c(ccc3c(C)cccc23)C1=O (configuration not stated) [16-O-OLEOYL DANSHENXINKUN A] | > 100 µM | 60.5 µM | 25.5 µM |
| CC(=O)Oc1ccccc1C(=O)O [ASPIRIN] |  |  | 27 µM |
